What was measured:
HCT-8 = test: Tumor cell proliferation (MTS), HCT-8; type: cell-based; conditions: Homo sapiens; HCT-8, 72 hours; read-out: Gl50 µM in HCT-8
Experimental: (§1) Tumor cells were trypsinized and plated into 96-well plates at 3,000 per well and incubated in complete medium with 10% FBS for 24 hours. Compounds to be tested and vehicle control were added, and the final concentration of compound is in the range of 100 nmol/L to 100 µmol/L. The compounds were incubated for 72 hours in complete medium. The MTS reagent (Promega) was added according to the instruction, incubated for 2 hours at 37°C in CO2 incubator. Then absorbance at 490nm is read using an ELISA plate reader.

A549 = test: Tumor cell proliferation (MTS), A549; type: cell-based; conditions: Homo sapiens; A549, 72 hours; read-out: Gl50 µM in A549
Experimental: as §1

human PDGFRβ = molecular target: T1, human PDGFRβ (Homo sapiens, UniProt P09619); test: PDGF dependent cell proliferation (MTS); type: cell-based; conditions: PDGFRβ NIH-3T3 cells, PDGF BB (50ng/ml), 72 hours, serum-free medium; read-out: Gl50 nM (PDGF ligand-dependent cell proliferation)
T1 construct: expressed in transfected cells
Experimental: NIH-3T3 mouse fibroblasts cell line engineered to stably express human PDGFRβ was constructed and used to evaluate PDGF dependent cell proliferation. PDGFRβ NIH-3T3 cells were plated into 96-well plates at 5,000 per well and incubated overnight with serum-free medium after 24 hours. Compounds to be tested and PDGF BB (50ng/ml) were added and incubated for 72 hours in serum-free medium. The effects on proliferation were determined by MTS method (Promega) according to the instruction. Incubation was performed for 2 hours at 37°C in CO2 incubator, and absorbance at 490nm was measured using an ELISA plate reader.

MCF-7 = test: Tumor cell proliferation (MTS), MCF-7; type: cell-based; conditions: Homo sapiens, MCF7; MCF-7, 72 hours; read-out: Gl50 µM in MCF-7
Experimental: as §1

HUVEC cells = test: VEGF dependent cell proliferation (MTS); type: cell-based; conditions: Homo sapiens, VEGF 165 (50ng/ml), 72 hours, serum-free medium, read-out: Gl50 nM (VEGF ligand-dependent cell proliferation)
Experimental: HUVEC cells were plated into 96-well plates at 6,000 per well and after 24 hours incubated with serum-free medium for 2 hours. Compounds to be tested and VEGF 165 (50ng/ml) were added and incubated for 72 hours in serum-free medium. The effects on cell proliferation were determined by MTS method (Promega) according to the instruction. Incubation was performed for 2 hours at 37°C in CO2 incubator, and absorbance at 490nm was determined using an ELISA plate reader.

A-498 = test: Tumor cell proliferation (MTS), A-498; type: cell-based; conditions: Homo sapiens, A498; A-498, 72 hours; read-out: Gl50 µM in A-498
Experimental: as §1

Bel-7402 = test: Tumor cell proliferation (MTS), Bel-7402; type: cell-based; conditions: Homo sapiens; Bel-7402, 72 hours; read-out: Gl50 µM in Bel-7402
Experimental: as §1

Class I HDAC = test: HDAC subtype selectivity reporter gene assay (P21 reporter, HeLa cells); type: cell-based; conditions: Homo sapiens; 10µM; HeLa cells, 24 hours; read-out: Class I HDAC (P21 reporter assay) Fold Induction at 10µM
Experimental: Different HDAC subtypes can bind with different transcriptional factors and involve in expression regulation of various genes. Suitable regulation elements for transcriptional factors are selected to construct reporter genes, which can be used to evaluate the selective inhibition of inhibors on HDAC subtypes. Briefly, HeLa cells were seeded in 96-well plates the day before transfection to give a confluence of 50-80% when transfection. Cells were transfected with one of reporter gene plasmid containing a p21-promoter sequence or response element upstream of a luciferase gene construct using FuGene6 transfection reagent according to the manufacturer's instruction (Roche). For normalizing the transfection efficiency, a GFP expression plasmid was cotransfected. After 24 hours compounds or the vehicle control (DMSO) were added. 24 hours later the cells were harvested and lysed, and the amount of the luciferase was evaluated using luciferase assay kits (Promega) according to the manufacturer's instructions.

total HDAC enzyme = test: In vitro total HDAC enzyme activity (HDAC Fluorimetric Assay/Drug Discovery Kit, HeLa cell nuclear extract); type: biochemical
Experimental: The in vitro total HDAC enzyme activity was determined by HDAC Fluorimetric Assay/Drug Discovery Kit (BIOMOL) according to manufacture's instruction. The principle of the experiment is as follows: under the action of histone deacetylase (in the experiment, HeLa cell nuclear extract, which was rich in a variety of subtypes of HDAC, was used), an acetyl group is removed from a special substrate Fluor de Lys, thus the free amino is exposed. Upon Developer is added, the substrate will produce fluorescence. For the fluorescence, excitation wavelength is 360nm, and emission wavelength is 460nm. More fully the substrate deacetylated, more higher the fluorescence induced. In the absence of inhibitors, the fluorescence value is taken as the control; when inhibitor is existed, fluorescence value induced will be reduced, while in the case no enzyme is existed (corresponding to the completely inhibition of enzyme activity) the fluorescence value is blank. Generally, after suppression the fluorescence values will be between the control and blank. When analysis is made, blank will be used as 0, and the control will be used as 1. Smaller value means higher inhibitory activity. 1. Add Assay buffer, diluted trichostatin A and test inhibitor to appropriate wells of the microtiter plate. Following table lists the amounts used for each regent of various assay types.
2. Add diluted HeLa nucleoprotein extract to all wells except those that are marked as "blank". 3. Allow diluted Fluor de Lys™ Substrate and the samples in the microtiter plate to equilibrate to 25°C. 4. Initiate HDAC reactions by adding diluted substrate (25 µl) to each well and mixing thoroughly. 5. Allow reactions to proceed for 30 minutes and then stop them by addition of Fluor de Lys™ Developer (50 µl). Incubate plate at room temperature (25°C) for 10-15 min. 6. Read fluorescence of samples on a microtiter-plate reading fluorimeter at a excitation wavelength of 369 nm and a emitted wavelength of 451 nm.

human HCT-8 colon cancer = test: Nude mice tumor transplanted from human HCT-8 colon cancer (Example 54); type: in vivo; conditions: for TGI (%): tumor growth inhibition
Experimental: Female nu/nu mice of 18∼20g were fed by normal diet for 3 days. Then the cultured HCT-8 human colon cancer cells were implanted into the armpit of 50 mice. […] Each group had 8 mice. One group was treated with vehicle. One group was treated with Sutent, the positive control drug. Two groups were treated with compound 33 at different concentrations. The other two groups were treated with compound 34 at different concentrations. Each group was dosed orally once a day for 20 days. […] The tumor growth inhibition of each group was calculated using the following formula: {[(the average tumor weight of control group)-(the average tumor weight of test group)]/(the average tumor weight of control group)} × 100%. [formula] The experimental results are shown in Table 8 and Figure 4.

[1] = 30 mg/kg orally once a day for 20 days
[2] = 60 mg/kg orally once a day for 20 days

T1 sequence (P09619 33-1106): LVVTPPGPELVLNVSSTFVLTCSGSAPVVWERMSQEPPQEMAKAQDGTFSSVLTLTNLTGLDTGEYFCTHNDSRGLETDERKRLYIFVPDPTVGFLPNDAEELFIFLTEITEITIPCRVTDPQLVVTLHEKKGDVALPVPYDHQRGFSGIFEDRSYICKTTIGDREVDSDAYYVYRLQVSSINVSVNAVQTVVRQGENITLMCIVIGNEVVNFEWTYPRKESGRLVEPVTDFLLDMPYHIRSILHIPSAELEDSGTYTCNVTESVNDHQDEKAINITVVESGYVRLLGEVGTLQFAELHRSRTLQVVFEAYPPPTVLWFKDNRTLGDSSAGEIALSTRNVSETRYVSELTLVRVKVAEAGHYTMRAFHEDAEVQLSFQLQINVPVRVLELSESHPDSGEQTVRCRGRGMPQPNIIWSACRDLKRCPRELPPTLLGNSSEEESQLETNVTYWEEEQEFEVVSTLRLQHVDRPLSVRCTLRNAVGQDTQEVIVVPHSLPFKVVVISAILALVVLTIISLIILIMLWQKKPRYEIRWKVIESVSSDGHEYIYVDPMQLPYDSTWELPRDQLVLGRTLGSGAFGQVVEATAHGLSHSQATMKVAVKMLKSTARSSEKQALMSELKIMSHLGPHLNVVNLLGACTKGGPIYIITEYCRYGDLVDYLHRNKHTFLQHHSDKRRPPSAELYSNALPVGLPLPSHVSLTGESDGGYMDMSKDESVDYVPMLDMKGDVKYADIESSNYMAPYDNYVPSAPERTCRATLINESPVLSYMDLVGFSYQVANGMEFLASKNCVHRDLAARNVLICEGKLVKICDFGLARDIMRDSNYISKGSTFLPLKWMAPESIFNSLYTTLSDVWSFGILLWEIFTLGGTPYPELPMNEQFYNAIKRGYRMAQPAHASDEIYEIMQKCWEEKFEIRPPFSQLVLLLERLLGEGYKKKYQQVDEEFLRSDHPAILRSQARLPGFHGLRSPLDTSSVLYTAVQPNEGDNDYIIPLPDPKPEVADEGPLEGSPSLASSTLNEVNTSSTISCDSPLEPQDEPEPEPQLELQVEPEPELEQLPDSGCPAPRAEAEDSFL

Row | SMILES | IC50 (HCT-8) | IC50 (A549) | IC50 (human PDGFRβ) | IC50 (MCF-7) | IC50 (HUVEC cells) | IC50 (A-498) | IC50 (Bel-7402) | fold induction at 10 µM (Class I HDAC) | % inhibition of total HDAC enzyme activity at 30µM (total HDAC enzyme) | Tumor weight (human HCT-8 colon cancer; [1]) | Body weight (g) end (human HCT-8 colon cancer; [1]) | Body weight (g) start (human HCT-8 colon cancer; [1]) | TGI (%) (human HCT-8 colon cancer; [1]) | Tumor weight (human HCT-8 colon cancer; [2]) | Body weight (g) end (human HCT-8 colon cancer; [2]) | Body weight (g) start (human HCT-8 colon cancer; [2]) | TGI (%) (human HCT-8 colon cancer; [2])
1 | COc1ccc2c(Oc3ccc4c(C(=O)Nc5ccccc5N)cccc4c3)ccnc2c1 [Compound 31, N-(2-aminophenyl)-6-(7-methoxyquinolin-4-yloxy)-1-naphthamide] | 6600 nM | 17300 nM | 46 nM | 10200 nM | 5 nM | 9500 nM | 30000 nM | 1.6 | 10.1% | – | – | – | – | – | – | – | –
2 | COc1ccc2c(Oc3ccc4c(C(=O)NCc5ccc(C(=O)Nc6ccccc6N)cc5)cccc4c3)ccnc2c1 [Compound 33, N-(4-((2-aminophenyl)carbamoyl)benzyl)-6-(7-methoxyquinolin-4-yloxy)-1-naphthamide] | 1500 nM | 2100 nM | 300 nM | 2000 nM | 8 nM | 1900 nM | 2800 nM | 2.8 | 39.1% | 2.31 ± 0.43 g | 21.1 ± 2.2 g | 19.0 ± 1.3 g | 43.3% | 1.98 ± 0.61 g | 21.4 ± 1.5 g | 19.4 ± 0.8 g | 51.5%

Reference: patent EP2439195B1, “NAPHTHALENE CARBOXAMIDE DERIVATIVES AS INHIBITORS OF PROTEIN KINASE AND HISTONE DEACETYLASE, PREPARATION METHODS AND USES THEREOF” (Shenzhen Chipscreen Biosciences, Ltd., priority 2009, dated 2010)
